Measured values taken from the supplement of paper PMC10307832.

Tests used:
Experiment in all cases: relative viability (nuclei count vs DMSO), 5 days (fraction); higher = more cells survive
EPLC-272H = test system: EPLC-272H
Procedure, shortened: (§1)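 For relative viability, nuclei counts in treated wells were divided by those in vehicle wells. Lung cancer cell lines had been pin-tool dosed in 1536-well plates the day after seeding and cultured for 5 days, then fixed and stained in one step (final 0.05% Triton X-100, 1% formaldehyde, 1 ug/ml Hoechst) and imaged at 4×. Doses were one drug alone or a fixed anchor-drug dose plus five library-drug doses (not always all listed) in √10 steps, and values are duplicate-plate medians.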

EMC-BAC-2 = test system: EMC-BAC-2
Procedure, shortened: as §1

NCI-H1355 = test system: NCI-H1355
Procedure, shortened: as §1

NCI-H2085 = test system: NCI-H2085
Procedure, shortened: as §1

NCI-H520 = test system: NCI-H520
Procedure, shortened: as §1

NCI-H2405 = test system: NCI-H2405
Procedure, shortened: as §1

UMC-11 = test system: UMC-11
Procedure, shortened: as §1

H3255 = test system: H3255
Procedure, shortened: as §1

NCI-H322M = test system: NCI-H322M
Procedure, shortened: as §1

ChaGo-K-1 = test system: ChaGo-K-1
Procedure, shortened: as §1

NCI-H650 = test system: NCI-H650
Procedure, shortened: as §1

HCC-827 = test system: HCC-827
Procedure, shortened: as §1

NCI-H1944 = test system: NCI-H1944
Procedure, shortened: as §1

LCLC-97TM1 = test system: LCLC-97TM1
Procedure, shortened: as §1

NCI-H2087 = test system: NCI-H2087
Procedure, shortened: as §1

HCC-44 = test system: HCC-44
Procedure, shortened: as §1

NCI-H1395 = test system: NCI-H1395
Procedure, shortened: as §1

NCI-H1651 = test system: NCI-H1651
Procedure, shortened: as §1

LCLC-103H = test system: LCLC-103H
Procedure, shortened: as §1

NCI-H1993 = test system: NCI-H1993
Procedure, shortened: as §1

SK-MES-1 = test system: SK-MES-1
Procedure, shortened: as §1

NCI-H23 = test system: NCI-H23
Procedure, shortened: as §1

NCI-H1793 = test system: NCI-H1793
Procedure, shortened: as §1

Clc1ccc(Nc2nnc(Cc3ccncc3)c3ccccc23)cc1 [Vatalanib] + CC(=O)c1c(C)c2cnc(Nc3ccc(N4CCNCC4)cn3)nc2n(C2CCCC2)c1=O [Palbociclib] (partner 0.5 µM) was tested, and the relative viability (EPLC-272H; first compound 0.04 µM) was 0.361, the relative viability (EPLC-272H; first compound 0.1265 µM) was 0.344 and the relative viability (EPLC-272H; first compound 0.4 µM) was 0.372. For the same compound, the relative viability (EPLC-272H; first compound 1.265 µM) was 0.315, the relative viability (EPLC-272H; first compound 4 µM) was 0.358 and the relative viability (EMC-BAC-2; first compound 0.04 µM) was 0.545. For the same compound, the relative viability (EMC-BAC-2; first compound 0.1265 µM) was 0.524, the relative viability (EMC-BAC-2; first compound 0.4 µM) was 0.563 and the relative viability (EMC-BAC-2; first compound 4 µM) was 0.512. The relative viability (NCI-H1355; first compound 0.04 µM) was 0.434, the relative viability (NCI-H1355; first compound 0.1265 µM) was 0.428 and the relative viability (NCI-H1355; first compound 0.4 µM) was 0.424. For the same compound, the relative viability (NCI-H1355; first compound 1.265 µM) was 0.35, the relative viability (NCI-H1355; first compound 4 µM) was 0.388 and the relative viability (NCI-H2085; first compound 0.04 µM) was 0.457. It also gave a relative viability (NCI-H2085; first compound 0.1265 µM) of 0.469, a relative viability (NCI-H2085; first compound 0.4 µM) of 0.492 and a relative viability (NCI-H2085; first compound 1.265 µM) of 0.433. It also gave a relative viability (NCI-H2085; first compound 4 µM) of 0.475, a relative viability (NCI-H520; first compound 0.04 µM) of 0.214 and a relative viability (NCI-H520; first compound 0.1265 µM) of 0.242. For the same compound, the relative viability (NCI-H520; first compound 0.4 µM) was 0.255, the relative viability (NCI-H520; first compound 1.265 µM) was 0.199 and the relative viability (NCI-H520; first compound 4 µM) was 0.19. It also gave a relative viability (NCI-H2405; first compound 0.04 µM) of 0.555, a relative viability (NCI-H2405; first compound 0.1265 µM) of 0.496 and a relative viability (NCI-H2405; first compound 0.4 µM) of 0.54. The relative viability (NCI-H2405; first compound 4 µM) was 0.529, the relative viability (UMC-11; first compound 0.04 µM) was 0.3 and the relative viability (UMC-11; first compound 0.1265 µM) was 0.316. The relative viability (UMC-11; first compound 0.4 µM) was 0.34, the relative viability (UMC-11; first compound 1.265 µM) was 0.356 and the relative viability (UMC-11; first compound 4 µM) was 0.338. It also gave a relative viability (H3255; first compound 0.04 µM) of 0.308, a relative viability (H3255; first compound 0.1265 µM) of 0.273 and a relative viability (H3255; first compound 0.4 µM) of 0.325. For the same compound, the relative viability (H3255; first compound 1.265 µM) was 0.296, the relative viability (H3255; first compound 4 µM) was 0.309 and the relative viability (NCI-H322M; first compound 0.04 µM) was 0.432. It also gave a relative viability (NCI-H322M; first compound 0.1265 µM) of 0.492, a relative viability (NCI-H322M; first compound 0.4 µM) of 0.49 and a relative viability (NCI-H322M; first compound 4 µM) of 0.501. It also gave a relative viability (ChaGo-K-1; first compound 0.04 µM) of 0.998, a relative viability (ChaGo-K-1; first compound 0.1265 µM) of 0.885 and a relative viability (ChaGo-K-1; first compound 0.4 µM) of 0.945. It also gave a relative viability (ChaGo-K-1; first compound 1.265 µM) of 0.969, a relative viability (ChaGo-K-1; first compound 4 µM) of 0.961 and a relative viability (NCI-H650; first compound 0.04 µM) of 0.308. For the same compound, the relative viability (NCI-H650; first compound 0.1265 µM) was 0.316, the relative viability (NCI-H650; first compound 0.4 µM) was 0.298 and the relative viability (NCI-H650; first compound 1.265 µM) was 0.32. The relative viability (NCI-H650; first compound 4 µM) was 0.32, the relative viability (HCC-827; first compound 0.04 µM) was 0.484 and the relative viability (HCC-827; first compound 0.1265 µM) was 0.406. The relative viability (HCC-827; first compound 1.265 µM) was 0.49, the relative viability (HCC-827; first compound 4 µM) was 0.475 and the relative viability (NCI-H1944; first compound 0.04 µM) was 0.324. It also gave a relative viability (NCI-H1944; first compound 0.1265 µM) of 0.301, a relative viability (NCI-H1944; first compound 0.4 µM) of 0.364 and a relative viability (NCI-H1944; first compound 1.265 µM) of 0.29. The relative viability (NCI-H1944; first compound 4 µM) was 0.319, the relative viability (LCLC-97TM1; first compound 0.04 µM) was 0.172 and the relative viability (LCLC-97TM1; first compound 0.1265 µM) was 0.252. For the same compound, the relative viability (LCLC-97TM1; first compound 0.4 µM) was 0.194, the relative viability (LCLC-97TM1; first compound 1.265 µM) was 0.247 and the relative viability (LCLC-97TM1; first compound 4 µM) was 0.21. For the same compound, the relative viability (NCI-H2087; first compound 0.04 µM) was 0.251, the relative viability (NCI-H2087; first compound 0.1265 µM) was 0.209 and the relative viability (NCI-H2087; first compound 0.4 µM) was 0.205. The relative viability (NCI-H2087; first compound 1.265 µM) was 0.268, the relative viability (NCI-H2087; first compound 4 µM) was 0.22 and the relative viability (HCC-44; first compound 0.04 µM) was 0.922. The relative viability (HCC-44; first compound 0.1265 µM) was 0.981, the relative viability (HCC-44; first compound 0.4 µM) was 0.913 and the relative viability (HCC-44; first compound 1.265 µM) was 0.955. It also gave a relative viability (HCC-44; first compound 4 µM) of 0.959, a relative viability (NCI-H1395; first compound 0.04 µM) of 0.654 and a relative viability (NCI-H1395; first compound 0.1265 µM) of 0.622. It also gave a relative viability (NCI-H1395; first compound 0.4 µM) of 0.631, a relative viability (NCI-H1395; first compound 4 µM) of 0.568 and a relative viability (NCI-H1651; first compound 0.04 µM) of 0.51. For the same compound, the relative viability (NCI-H1651; first compound 0.1265 µM) was 0.496, the relative viability (NCI-H1651; first compound 0.4 µM) was 0.479 and the relative viability (NCI-H1651; first compound 1.265 µM) was 0.532. For the same compound, the relative viability (NCI-H1651; first compound 4 µM) was 0.513, the relative viability (LCLC-103H; first compound 0.04 µM) was 0.506 and the relative viability (LCLC-103H; first compound 0.1265 µM) was 0.452. It also gave a relative viability (LCLC-103H; first compound 0.4 µM) of 0.503, a relative viability (LCLC-103H; first compound 1.265 µM) of 0.443 and a relative viability (LCLC-103H; first compound 4 µM) of 0.513. It also gave a relative viability (NCI-H1993; first compound 0.04 µM) of 0.872, a relative viability (NCI-H1993; first compound 0.1265 µM) of 0.653 and a relative viability (NCI-H1993; first compound 0.4 µM) of 0.814. It also gave a relative viability (NCI-H1993; first compound 1.265 µM) of 0.562, a relative viability (NCI-H1993; first compound 4 µM) of 0.528 and a relative viability (SK-MES-1; first compound 0.04 µM) of 0.339. The relative viability (SK-MES-1; first compound 0.1265 µM) was 0.309, the relative viability (SK-MES-1; first compound 0.4 µM) was 0.347 and the relative viability (SK-MES-1; first compound 1.265 µM) was 0.309. The relative viability (SK-MES-1; first compound 4 µM) was 0.305, the relative viability (NCI-H23; first compound 0.04 µM) was 0.469 and the relative viability (NCI-H23; first compound 0.1265 µM) was 0.435. For the same compound, the relative viability (NCI-H23; first compound 0.4 µM) was 0.533, the relative viability (NCI-H23; first compound 1.265 µM) was 0.473 and the relative viability (NCI-H23; first compound 4 µM) was 0.468. It also gave a relative viability (NCI-H1793; first compound 0.04 µM) of 0.274, a relative viability (NCI-H1793; first compound 0.1265 µM) of 0.262 and a relative viability (NCI-H1793; first compound 0.4 µM) of 0.324. For the same compound, the relative viability (NCI-H1793; first compound 1.265 µM) was 0.285 and the relative viability (NCI-H1793; first compound 4 µM) was 0.319.
